Source: ChEMBL document CHEMBL6127083, “A mini-review on integrase inhibitors: The cornerstone of next-generation HIV treatment” (Eur J Med Chem, 2024)
pEC50, pIC50: −log10 of the molar value.

Key:
[1] = Half life in rat; assay type: ADME; details: in vivo
[2] = target: T1, Human immunodeficiency virus type 1 integrase (Human immunodeficiency virus 1, UniProt Q7ZJM1); assay: Inhibition of HIV-1 integrase incubated for 30 mins by strand transfer activity
[3] = Cytotoxicity against human TZM-bl cells assessed as reduction in cell viability incubated for 48 hrs by MTT assay; assay type: toxicity, cell-based
[4] = target: Human immunodeficiency virus type 1 integrase (Human immunodeficiency virus 1) (UniProt Q7ZJM1); assay: Inhibition of HIV-1 integrase at 20 uM relative to control
[5] = test system: Human immunodeficiency virus 1; assay: Antiviral activity against HIV-1 3B infected in human MT4 cells assessed as reduction in viral replication incubated for 5 days by MTT assay; assay type: functional, organism-based; details: Human immunodeficiency virus 1, 3B, MT4, 120 h
[6] = test system: Human immunodeficiency virus 1; assay: Antiviral activity against HIV-1 IIIB infected in human MT2 cells assessed as reduction in virus induced cytopathic effect incubated overnight by ELISA method; assay type: functional, organism-based; details: Human immunodeficiency virus 1, 3B
[7] = test system: Human immunodeficiency virus 1; assay: Antiviral activity against HIV-1 3B infected in human MT4 cells assessed as reduction in virus-induced cytopathic effect measured for 5 days by MTT assay; assay type: functional, organism-based; details: Human immunodeficiency virus 1, 3B, MT4, 120 h
[8] = target: T1, Human immunodeficiency virus type 1 integrase; assay: Inhibition of HIV-1 integrase
[9] = test system: Human immunodeficiency virus 1; assay: Antiviral activity against HIV-1 IIIB infected in human MT4 cells assessed as protection against virus induced cytopathic effect; assay type: functional, organism-based; details: Human immunodeficiency virus 1, IIIB
[10] = target: Human immunodeficiency virus type 1 integrase (Human immunodeficiency virus 1) (UniProt Q7ZJM1); assay: Inhibition of HIV-1 integrase at 100 uM relative to control
[11] = Inhibition of wild type HIV integrase strand transfer activity; set-up: species or system Human immunodeficiency virus
[12] = test system: Human immunodeficiency virus 1; assay: Antiviral activity against HIV1 IIIB harboring E138K mutant infected in MT4 cells assessed as reduction in virus induced cytopathic effect incubated for 5 days by MTT assay; assay type: functional, organism-based; details: Human immunodeficiency virus 1, IIIB, MT4, 120 h
[13] = test system: Human immunodeficiency virus 1; assay: Antiviral activity against HIV1 IIIB harboring N155H mutant infected in MT4 cells assessed as reduction in virus induced cytopathic effect incubated for 5 days by MTT assay; assay type: functional, organism-based; details: Human immunodeficiency virus 1, IIIB, MT4, 120 h
[14] = test system: Human immunodeficiency virus 1; assay: Antiviral activity against HIV1 IIIB harboring S230N mutant infected in MT4 cells assessed as reduction in virus induced cytopathic effect incubated for 5 days by MTT assay; assay type: functional, organism-based; details: Human immunodeficiency virus 1, IIIB, MT4, 120 h
[15] = Oral bioavailability in rat at 2 mg/kg by LC-MS/MS analysis; assay type: ADME, organism-based; details: in vivo
[16] = target: T1, Human immunodeficiency virus type 1 integrase; assay: Inhibition of HIV-1 integrase strand transfer activity
[17] = test system: Human immunodeficiency virus 1; assay: Antiviral activity against HIV1 harboring E138K mutant infected in MT4 cells assessed as reduction in virus induced cytopathic effect incubated for 5 days by MTT method; assay type: functional, organism-based; details: Human immunodeficiency virus 1, MT4, 120 h
[18] = target: Human immunodeficiency virus type 1 reverse transcriptase (Human immunodeficiency virus 1, UniProt Q72547); assay: Inhibition of recombinant HIV-1 reverse transcriptase associated RNase H extracted from Escherichia coli BL21 (DE3) by microplate reader analysis

T1 sequence (Q7ZJM1 whole entry): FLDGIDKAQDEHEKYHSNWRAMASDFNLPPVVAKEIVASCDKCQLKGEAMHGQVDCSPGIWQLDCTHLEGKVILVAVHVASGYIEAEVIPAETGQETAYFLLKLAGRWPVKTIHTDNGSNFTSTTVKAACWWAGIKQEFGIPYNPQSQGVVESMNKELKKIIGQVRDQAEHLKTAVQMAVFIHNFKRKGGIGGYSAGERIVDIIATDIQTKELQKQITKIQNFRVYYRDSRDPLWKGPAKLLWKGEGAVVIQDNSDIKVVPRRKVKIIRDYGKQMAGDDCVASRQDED
Sequence of Human immunodeficiency virus type 1 integrase (Human immunodeficiency virus 1) (Q7ZJM1 as listed by the source): as the sequence (Q7ZJM1 whole entry) above

C[C@@H]1CCO[C@H]2Cn3cc(C(=O)NCc4ccc(F)cc4F)c(=O)c(O)c3C(=O)N12 [DOLUTEGRAVIR] gave a half-life [1] of 6.2 h.
In the case of O=C(O)c1cc2ccc(Nc3ccc(F)cc3)cc2[nH]1, the pIC50 [2] was 5.51.
In the case of Cn1cc(-c2ccc3c(c2)OCO3)c2ccc(-c3ccncc3)nc21, the CC50 at 48 h [3] was greater than 200 µM.
For COc1ccc2[nH]c(=O)c(CNC3CCCC3)cc2c1, the inhibition [4] was 39.9%.
Work on [N-]=[N+]=NCc1ccc(C(=O)CC(=O)C(=O)O)cc1CN=[N+]=[N-] yielded a pIC50 [5] of 4.84.
Work on O=C(O)/C(O)=C/C(=O)c1ccc(OCc2ccccc2COc2cccc(C(=O)/C=C(\O)C(=O)O)c2)cc1 yielded a pEC50 [6] of 4.41.
For CCOC(=O)c1cc2cc(NC(=O)c3cnccn3)ccc2[nH]1, the pIC50 [2] was 4.93.
[N-]=[N+]=NCc1cccc(C(=O)CC(=O)C(=O)O)c1 gave a pIC50 [5] of 5.68.
For O=C(O)c1cc2ccccc2[nH]1 [INDOLE-2-CARBOXYLIC ACID], the pIC50 [2] was 4.49.
Compound O=C(O)/C(O)=C/C(=O)c1nc2ccccc2n1Cc1ccccc1F has a pEC50 [7] of 4.40.
With CC1COC2(C1)Cn1cc(C(=O)NCc3ccc(F)cc3F)c(=O)c(O)c1C(=O)C2(C)C (centres undefined) the pIC50 [8] was 6.77.
For COC(=O)/C(O)=C/C(=O)c1cc2cc3c(cc2n1-c1ccccc1)OCO3, the pEC50 [6] was 5.37.
O=C(O)/C(O)=C/C(=O)c1cccc(Cc2ccccc2F)c1 showed a pEC50 [9] of 7.70.
In the case of NNC(=O)c1ncn(-c2ccc(Br)cc2)c1-c1cccc(F)c1, the inhibition [10] was 50%.
With COc1ccc(-c2ccc3c(-c4ccc(F)cc4F)cn(C)c3n2)cc1 the CC50 at 48 h [3] was 49.3 µM.
With O=C(O)/C(O)=C/C(=O)c1cc2ccccc2n1-c1ccccc1 the pEC50 [6] was 5.37.
Work on CC(C)n1ccn2cc(C(=O)NCc3ccc(F)cc3F)c(=O)c(O)c2c1=O yielded a pIC50 [11] of 5.42, a pEC50 [12] of 7.30 and a pIC50 [13] of 5.37. The pIC50 [14] was 5.32.
With CC1COC2(C1)Cn1cc(C(=O)NCc3cccc(Cl)c3F)c(=O)c(O)c1C(=O)C2(C)C (centres undefined) the pIC50 [8] was 5.91.
With CCCCCn1c(=O)c(C(=O)Nc2cccc([N+](=O)[O-])c2O)c(O)c2ccccc21 the pIC50 [8] was 5.05.
With CC(C)Cn1ccn2cc(C(=O)NCc3ccc(F)cc3F)c(=O)c(O)c2c1=O the pIC50 [11] was 5.52, the pEC50 [12] was 7.22 and the pIC50 [13] was 5.44. The pIC50 [14] was 5.33.
Compound CC(C)Oc1ccc(Cc2ccccc2)cc1C(=O)CC(=O)C(=O)O has a pIC50 [8] of 7.00.
Compound O=c1cc(-c2ccc(O)c(O)c2)oc2cc(O[C@@H]3O[C@H](CO)[C@@H](O)[C@H](O)[C@H]3OS(=O)(=O)O)cc(O)c12 has a pIC50 [8] of 6.40.
With Cc1ccc(CCOc2ccc(-c3c(C)nc(C)c([C@H](OC(C)(C)C)C(=O)O)c3N3CCC(C)(C)CC3)cc2)cc1 the bioavailability [15] was 52%.
Compound C[C@H]1CO[C@@H]2Cn3cc(C(=O)NCc4ccc(F)cc4F)c(=O)c(O)c3C(=O)N12 [CABOTEGRAVIR] has a pIC50 [16] of 5.74 and a pEC50 [17] of 5.32.
With O=C(CCC(=O)/C(O)=C/C(=O)c1cccc(Cc2ccccc2F)c1)/C(O)=C/C(=O)c1cccc(Cc2ccccc2F)c1 the pEC50 [9] was 6.70.
In the case of CCOC(=O)c1[nH]c2ccccc2c1Nc1ccccc1OC, the pIC50 [2] was 5.00.
For O=C(O)c1[nH]c2ccc([N+](=O)[O-])cc2c1COCc1ccc(C(F)(F)F)cc1, the pIC50 [2] was 4.98.
With [N-]=[N+]=NCc1cc(CN=[N+]=[N-])cc(C(=O)CC(=O)C(=O)O)c1 the pIC50 [5] was 5.30.
In the case of N#CCCc1cccc(C(=O)CC(=O)C(=O)O)c1, the pIC50 [5] was less than 4.60.
In the case of O=C(NCc1c(F)cc(F)cc1F)c1cn2c(c(O)c1=O)C(=O)N1[C@H]3CC[C@H](C3)O[C@@H]1C2 [BICTEGRAVIR], the pIC50 [16] was 5.62.
Cn1c(=O)c(C(=O)O)c(O)c2cc(-c3ccc(F)cc3)ccc21 gave a pIC50 [8] of 6.05.
With CC(C)Oc1ccc(Cc2ccccc2)cc1C(=O)/C=C(\O)C(=O)O the pIC50 [8] was greater than 7.00.
With COC(=O)C1C(=O)N(O)C(=O)c2ccccc21 (centres undefined) the pIC50 [18] was 7.22.
In the case of O=C(O)c1ccc2ccc(/C=C/c3cc(O)c(O)c(O)c3)nc2c1O, the pIC50 [8] was 5.92.
CC(C)N1CCn2cc(C(=O)NCc3ccc(F)cc3F)c(=O)c(O)c2C1=O gave a pIC50 [11] of 5.77, a pIC50 [13] of 5.30 and a pIC50 [14] of 5.52.
O=C(NCc1ccc(O)c(O)c1)c1ccc2ccc(C(=O)O)c(O)c2n1 showed a pIC50 [8] of 6.00.
CC1COC2(C1)[C@H](C)n1cc(C(=O)NCc3ccc(F)cc3F)c(=O)c(O)c1C(=O)C2(C)C (some centres undefined) gave a pIC50 [8] of 6.85.
O=C(NCc1ccccc1)C1C(=O)N(O)C(=O)c2ccccc21 (centres undefined) gave a pIC50 [18] of 6.44.
In the case of O=C(O)/C(O)=C/C(=O)c1ccc(C(c2cccc(C(=O)/C=C(\O)C(=O)O)c2)c2ccccc2F)cc1 (centres undefined), the pEC50 [6] was 4.77.
COc1ccc(C(=O)CC(=O)C(=O)O)cc1CN=[N+]=[N-] showed a pIC50 [5] of less than 4.60.
